Experimental data taken from US11498899B2, “Nitrone herbicides” (FMC Corporation, priority 2016, dated 2022).

Tests used:
[1] = system: barnyardgrass (Echinochloa crus-galli); assay: Test A preemergence, visual injury rating 0-100 (0 no effect, 100 complete control); type: in vivo; conditions: for Barnyardgrass plant response rating (0 to 100 scale): 125 g ai/ha
Excerpt: (§1) Seeds of plant species selected from barnyardgrass (Echinochloa crus-galli), kochia (Kochia scoparia), ragweed (common ragweed, Ambrosia elatior), ryegrass, Italian (Italian ryegrass, Lolium multiflorum), foxtail, giant (giant foxtail, Setaria faberii), foxtail, green (green foxtail, Setaria viridis), and pigweed (Amaranthus retroflexus) were planted into a blend of loam soil and sand and treated preemergence with a directed soil spray using test chemicals formulated in a non-phytotoxic solvent mixture which included a surfactant.
(§2) At the same time, plants selected from these weed species and also wheat (Triticum aestivum), corn (Zea mays), blackgrass (Alopecurus myosuroides), and galium (catchweed bedstraw, Galium aparine) were planted in pots containing the same blend of loam soil and sand and treated with postemergence applications of test chemicals formulated in the same manner. Plants ranged in height from 2 to 10 cm and were in the one- to two-leaf stage for the postemergence treatment. Treated plants and untreated controls were maintained in a greenhouse for approximately 10 days, after which time all treated plants were compared to untreated controls and visually evaluated for injury. […] A dash (-) response means no test result.

[2] = system: foxtail, giant (giant foxtail, Setaria faberii); assay: Test A preemergence, visual injury rating 0-100; type: in vivo; conditions: for Foxtail, Giant plant response rating (0 to 100 scale): 125 g ai/ha
Excerpt: as §1, §2

kochia (Kochia scoparia) [3] = assay: Test A preemergence, visual injury rating 0-100; type: in vivo; conditions: for Kochia plant response rating (0 to 100 scale): 125 g ai/ha
Excerpt: as §1, §2

[4] = system: pigweed (Amaranthus retroflexus); assay: Test A preemergence, visual injury rating 0-100; type: in vivo; conditions: for Pigweed plant response rating (0 to 100 scale): 125 g ai/ha
Excerpt: as §1, §2

[5] = system: ragweed (common ragweed, Ambrosia elatior); assay: Test A preemergence, visual injury rating 0-100; type: in vivo; conditions: for Ragweed plant response rating (0 to 100 scale): 125 g ai/ha
Excerpt: as §1, §2

[6] = system: ryegrass, Italian (Italian ryegrass, Lolium multiflorum); assay: Test A preemergence, visual injury rating 0-100; type: in vivo; conditions: for Ryegrass, Italian plant response rating (0 to 100 scale): 125 g ai/ha
Excerpt: as §1, §2

[7] = system: barnyardgrass (Echinochloa crus-galli); assay: Test A postemergence, visual injury rating 0-100; type: in vivo; conditions: 0 to 100 scale
Excerpt: as §1, §2

[8] = system: blackgrass (Alopecurus myosuroides); assay: Test A postemergence, visual injury rating 0-100; type: in vivo; conditions: 0 to 100 scale
Excerpt: as §1, §2

corn (Zea mays) = assay: Test A postemergence, visual injury rating 0-100; type: in vivo; conditions: 0 to 100 scale
Excerpt: as §1, §2

[9] = system: foxtail, giant (giant foxtail, Setaria faberii); assay: Test A postemergence, visual injury rating 0-100; type: in vivo; conditions: 0 to 100 scale
Excerpt: as §1, §2

[10] = system: galium (catchweed bedstraw, Galium aparine); assay: Test A postemergence, visual injury rating 0-100; type: in vivo; conditions: 0 to 100 scale
Excerpt: as §1, §2

kochia (Kochia scoparia) [11] = assay: Test A postemergence, visual injury rating 0-100; type: in vivo; conditions: 0 to 100 scale
Excerpt: as §1, §2

[12] = system: pigweed (Amaranthus retroflexus); assay: Test A postemergence, visual injury rating 0-100; type: in vivo; conditions: 0 to 100 scale
Excerpt: as §1, §2

[13] = system: ragweed (common ragweed, Ambrosia elatior); assay: Test A postemergence, visual injury rating 0-100; type: in vivo; conditions: 0 to 100 scale
Excerpt: as §1, §2

[14] = system: ryegrass, Italian (Italian ryegrass, Lolium multiflorum); assay: Test A postemergence, visual injury rating 0-100; type: in vivo; conditions: 0 to 100 scale
Excerpt: as §1, §2

[15] = system: wheat (Triticum aestivum); assay: Test A postemergence, visual injury rating 0-100; type: in vivo; conditions: 0 to 100 scale
Excerpt: as §1, §2

[16] = system: ducksalad (Heteranthera limosa); assay: Test B flooded paddy test, visual rating 0-100; conditions: Flood, 250 g ai/ha, applied to paddy water, rated after 13 to 15 days
[17] = system: barnyardgrass (Echinochloa crus-galli); assay: Test B flooded paddy test, visual rating 0-100; conditions: Flood, 250 g ai/ha, applied to paddy water, rated after 13 to 15 days
rice (Oryza sativa) = assay: Test B flooded paddy test, visual rating 0-100 (0 no effect, 100 complete control); conditions: Flood, 250 g ai/ha, applied to paddy water, rated after 13 to 15 days
[18] = 31 g ai/ha, 0 to 100 scale (0 no effect, 100 complete control), approx. 10 days

Structure (SMILES)	Barnyardgrass plant response rating (0 to 100 scale) [1]	Barnyardgrass plant response rating ([1]; 500 g ai/ha, 0 to 100 scale)	Foxtail, Giant plant response rating (0 to 100 scale) [2]	Foxtail, Giant plant response rating ([2]; 500 g ai/ha, 0 to 100 scale)	Kochia plant response rating (0 to 100 scale) (kochia (Kochia scoparia) [3])	Pigweed plant response rating (0 to 100 scale) [4]	Ragweed plant response rating (0 to 100 scale) [5]	Ryegrass, Italian plant response rating (0 to 100 scale) [6]	Barnyardgrass plant response rating ([7]; 125 g ai/ha)	Blackgrass plant response rating ([8]; 125 g ai/ha)	Corn plant response rating (corn (Zea mays); 125 g ai/ha)	Foxtail, Giant plant response rating ([9]; 125 g ai/ha)	Galium plant response rating ([10]; 125 g ai/ha)	Kochia plant response rating (kochia (Kochia scoparia) [11]; 125 g ai/ha)	Pigweed plant response rating ([12]; 125 g ai/ha)	Ryegrass, Italian plant response rating ([14]; 125 g ai/ha)	Wheat plant response rating ([15]; 125 g ai/ha)	Ducksalad plant response rating (0 to 100 scale) [16]	Barnyardgrass plant response rating (0 to 100 scale) [17]	Rice plant response rating (0 to 100 scale) (rice (Oryza sativa))	further results
CC1=[N+]([O-])C(C)(C(=O)Nc2cccc(F)c2F)C(c2ccc(C(F)(F)F)cc2)C1 (racemic) [Compound 1]	90	100	100	100	70	20	0	0	70	20	0	0	80	0	20	0	30	70	70	50	Kochia plant response rating (kochia (Kochia scoparia) [3]; 500 g ai/ha, 0 to 100 scale): 90; Pigweed plant response rating ([4]; 500 g ai/ha, 0 to 100 scale): 80; Ragweed plant response rating ([5]; 500 g ai/ha, 0 to 100 scale): 30; Ryegrass, Italian plant response rating ([6]; 500 g ai/ha, 0 to 100 scale): 60; Barnyardgrass plant response rating ([7]; 500 g ai/ha): 90; Blackgrass plant response rating ([8]; 500 g ai/ha): 70; Corn plant response rating (corn (Zea mays); 500 g ai/ha): 70; Foxtail, Giant plant response rating ([9]; 500 g ai/ha): 80; Galium plant response rating ([10]; 500 g ai/ha): 80; Kochia plant response rating (kochia (Kochia scoparia) [11]; 500 g ai/ha): 70; Pigweed plant response rating ([12]; 500 g ai/ha): 60; Ragweed plant response rating ([13]; 125 g ai/ha): 0; Ragweed plant response rating ([13]; 500 g ai/ha): 30; Ryegrass, Italian plant response rating ([14]; 500 g ai/ha): 20; Wheat plant response rating ([15]; 500 g ai/ha): 70
CC1=[N+]([O-])C(C(=O)Nc2cccc(F)c2F)C(c2cccc(Cl)c2)C1 (racemic) [Compound 3]	100	100	100	100	30	20	30	20	80	30	40	80	60	20	0	0	30	100	80	0	Kochia plant response rating (kochia (Kochia scoparia) [3]; 500 g ai/ha, 0 to 100 scale): 90; Pigweed plant response rating ([4]; 500 g ai/ha, 0 to 100 scale): 70; Ragweed plant response rating ([5]; 500 g ai/ha, 0 to 100 scale): 70; Ryegrass, Italian plant response rating ([6]; 500 g ai/ha, 0 to 100 scale): 50; Barnyardgrass plant response rating ([7]; 500 g ai/ha): 90; Blackgrass plant response rating ([8]; 500 g ai/ha): 80; Corn plant response rating (corn (Zea mays); 500 g ai/ha): 90; Foxtail, Giant plant response rating ([9]; 500 g ai/ha): 90; Galium plant response rating ([10]; 500 g ai/ha): 70; Kochia plant response rating (kochia (Kochia scoparia) [11]; 500 g ai/ha): 60; Pigweed plant response rating ([12]; 500 g ai/ha): 20; Ragweed plant response rating ([13]; 500 g ai/ha): 50; Ryegrass, Italian plant response rating ([14]; 500 g ai/ha): 70; Wheat plant response rating ([15]; 500 g ai/ha): 80
CC1=[N+]([O-])C(C(=O)Nc2cccc(F)c2F)C(c2ccc3c(c2)OCO3)C1 (racemic) [Compound 4]	100	100	100	100	0	20	0	0	50	0	0	40	30	0	0	0	0	40	60	10	Kochia plant response rating (kochia (Kochia scoparia) [3]; 500 g ai/ha, 0 to 100 scale): 80; Pigweed plant response rating ([4]; 500 g ai/ha, 0 to 100 scale): 90; Ragweed plant response rating ([5]; 500 g ai/ha, 0 to 100 scale): 100; Ryegrass, Italian plant response rating ([6]; 500 g ai/ha, 0 to 100 scale): 20; Barnyardgrass plant response rating ([7]; 500 g ai/ha): 90; Blackgrass plant response rating ([8]; 500 g ai/ha): 20; Corn plant response rating (corn (Zea mays); 500 g ai/ha): 60; Foxtail, Giant plant response rating ([9]; 500 g ai/ha): 90; Galium plant response rating ([10]; 500 g ai/ha): 60; Kochia plant response rating (kochia (Kochia scoparia) [11]; 500 g ai/ha): 50; Pigweed plant response rating ([12]; 500 g ai/ha): 20; Ragweed plant response rating ([13]; 125 g ai/ha): 0; Ragweed plant response rating ([13]; 500 g ai/ha): 50; Ryegrass, Italian plant response rating ([14]; 500 g ai/ha): 40; Wheat plant response rating ([15]; 500 g ai/ha): 60
CC1=[N+]([O-])C(C(=O)Nc2cccc(F)c2F)C(c2cccc(F)c2)C1 (racemic) [Compound 8]	90	90	90	90	0	20	0	0	50	0	0	90	20	0	0	0	0	100	85	0	Kochia plant response rating (kochia (Kochia scoparia) [3]; 500 g ai/ha, 0 to 100 scale): 50; Pigweed plant response rating ([4]; 500 g ai/ha, 0 to 100 scale): 40; Ragweed plant response rating ([5]; 500 g ai/ha, 0 to 100 scale): 80; Ryegrass, Italian plant response rating ([6]; 500 g ai/ha, 0 to 100 scale): 40; Barnyardgrass plant response rating ([7]; 500 g ai/ha): 90; Blackgrass plant response rating ([8]; 500 g ai/ha): 30; Corn plant response rating (corn (Zea mays); 500 g ai/ha): 0; Foxtail, Giant plant response rating ([9]; 500 g ai/ha): 90; Galium plant response rating ([10]; 500 g ai/ha): 60; Kochia plant response rating (kochia (Kochia scoparia) [11]; 500 g ai/ha): 40; Pigweed plant response rating ([12]; 500 g ai/ha): 20; Ragweed plant response rating ([13]; 125 g ai/ha): 0; Ragweed plant response rating ([13]; 500 g ai/ha): 0; Ryegrass, Italian plant response rating ([14]; 500 g ai/ha): 50; Wheat plant response rating ([15]; 500 g ai/ha): 50
CC1=[N+]([O-])C(C(=O)Nc2cccc(F)c2F)C(c2ccc(F)cc2)C1 (racemic) [Compound 9]	90	–	90	–	0	30	90	0	40	0	0	50	30	0	20	0	0	100	85	0	Barnyardgrass plant response rating [1, 18]: 30; Foxtail, Giant plant response rating [2, 18]: 70; Kochia plant response rating (kochia (Kochia scoparia) [3]; [18]): 0; Pigweed plant response rating [4, 18]: 0; Ragweed plant response rating [5, 18]: 0; Ryegrass, Italian plant response rating [6, 18]: 0; Barnyardgrass plant response rating ([7]; 31 g ai/ha): 10; Blackgrass plant response rating ([8]; 31 g ai/ha): 0; Corn plant response rating (corn (Zea mays); 31 g ai/ha): 0; Foxtail, Giant plant response rating ([9]; 31 g ai/ha): 20; Galium plant response rating ([10]; 31 g ai/ha): 0; Kochia plant response rating (kochia (Kochia scoparia) [11]; 31 g ai/ha): 0; Pigweed plant response rating ([12]; 31 g ai/ha): 0; Ragweed plant response rating ([13]; 31 g ai/ha): 0; Ragweed plant response rating ([13]; 125 g ai/ha): 0; Ryegrass, Italian plant response rating ([14]; 31 g ai/ha): 0; Wheat plant response rating ([15]; 31 g ai/ha): 0
